The values below come from patent US8987514B2, “Compositions and methods for labeling and imaging phospholipids” (President and Fellows of Harvard College, priority 2009, dated 2015).

The experiment has as its system NIH-3T3 cells. The conditions noted are these: for incorporation of azide choline analogs into phospholipids: FIG. 8 legend. An excerpt:
After incorporation into phospholipids, azidophosphatidylcholine molecules can be detected by specifically reacting them with a fluorescent conjugate of dibenzo-cyclooctyne (DBCO), in a strain-promoted azide-alkyne cycloaddition reaction, also known as the copper-free “click” reaction (FIG. 9). In addition, azidophosphatidylcholine molecules can be reacted with a biotin-phosphine, followed by the detection of the biotinylated phospholipid species using labeled streptavidin (FIG. 10).
Cultured NIH-3T3 cells on coverslips were incubated overnight in complete media (DMEM with 10% bovine calf serum) in the absence or presence of 1 mM azidopropyl-choline. The cells were then washed with PBS, fixed with 3.7% formaldehyde in PBS, washed with TBS and then reacted with 40 microM biotin-phosphine in TBS supplemented with 1 mM DTT, for 3 hours at room temperature. The cells were then washed successively with TBS, 0.5 M NaCl, and TBS. Non-specific binding sites were blocked by incubation with blocking buffer (4% bovine serum albumin in TBS), followed by staining with Alexa488-streptavidin (1 microg/mL in blocking buffer). The cells were then washed with TBS (at least 4 washes, at 5 minutes each), mounted and imaged by fluorescence microscopy.
Cultured NIH-3T3 cells were transiently transfected with the plasmid pDsRed-Mito (Clontech), which labels mitochondria red. The cells were then incubated overnight in complete media, in the absence or presence of 500 microM azidoethyl-choline. The cells were washed with PBS, fixed with 3.7% formaldehyde in PBS, washed with TBS and then reacted with 20 microM Alexa488-DBCO in TBS, for 30 minutes at room temperature. Unreacted Alexa488-DBCO was removed by washing successively with TBS, 0.5 M NaCl, and TBS. The cells were then imaged by fluorescence microscopy.

Take azidoethyl-choline: the “incorporation of azide choline analogs into phospholipids” value was “efficiently incorporated into phospholipids in vivo”. In addition, the “subcellular distribution of azidoethylcholine-labeled phospholipids” value (NIH-3T3 cells, 500 microM overnight, DsRed-Mito marker, Alexa488-DBCO, FIG. 12) was “localize to several populations of cellular membranes, including the mitochondrial membrane”. As to azidopropyl-choline, the “incorporation of azide choline analogs into phospholipids” value is reported as “efficiently incorporated into phospholipids in vivo”.
